This passage reports Kd and EC50 results from patent US12091402B2 (Avilar Therapeutics, Inc., priority 2021, dated 2024).

Experiment [1] has as its target IgG. The experiment in a line: Affinity to IgG by surface plasmon resonance (SPR). The class given is binding. Here is the method:
Immobilization levels ranging from 1000-1300 resonance units (RU) are obtained. The running buffer is 10 mM HEPES, pH 7.4, 400 mM NaCl, 0.005% P20, […].
Background: SPR reads the build-up and loss of mass on a sensor chip optically.

For experiment [2], the target named is T1, ASGPR receptor on the cell surface (HepG2 cells) (Homo sapiens, UniProt P07306).
T1 construct: host or cells: HepG2
T1 sequence (P07306 1-291): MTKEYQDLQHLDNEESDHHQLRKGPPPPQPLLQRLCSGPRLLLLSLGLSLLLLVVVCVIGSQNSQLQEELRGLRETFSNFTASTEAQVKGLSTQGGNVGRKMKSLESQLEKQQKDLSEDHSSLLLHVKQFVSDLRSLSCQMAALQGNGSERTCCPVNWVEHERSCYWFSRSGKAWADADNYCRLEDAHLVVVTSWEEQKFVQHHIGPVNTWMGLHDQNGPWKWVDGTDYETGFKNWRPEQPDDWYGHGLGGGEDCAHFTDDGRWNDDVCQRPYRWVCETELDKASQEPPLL
T1 sequence (P07307 1-311 partner): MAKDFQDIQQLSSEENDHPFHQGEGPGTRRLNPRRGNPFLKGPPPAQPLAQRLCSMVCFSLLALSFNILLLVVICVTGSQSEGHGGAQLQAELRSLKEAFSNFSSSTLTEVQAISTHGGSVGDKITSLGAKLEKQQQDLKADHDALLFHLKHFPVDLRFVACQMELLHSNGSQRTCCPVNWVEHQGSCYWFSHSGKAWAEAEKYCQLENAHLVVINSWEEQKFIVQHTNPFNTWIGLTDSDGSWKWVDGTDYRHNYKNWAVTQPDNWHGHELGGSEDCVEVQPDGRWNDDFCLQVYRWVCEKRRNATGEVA
The experiment in a line: Ternary complex formation assay (flow cytometry, HepG2). The class given is cell-based. The essentials:
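HepG2 cells (1×10^5/well) incubated 1 h at 4 °C with 100 nM AF488-labeled anti-human IgG plus serial IgG-based degrader, or 100 nM AF488 rabbit anti-DNP plus serial DNP-based degrader. After washing, cell-associated AF488 MFI read by flow cytometry; peak MFI marks optimal degrader concentration for ternary complex.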
In general terms: A flow cytometer gives signals particle by particle.

Experiment [3] deals with HepG2 cells. Briefly: Cellular uptake assay of AF488-labeled antibody (HepG2). The class given is cell-based. The essentials: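 Ternary-complex uptake via ASGPR was imaged after fixation: the read-out is AF488-positive HepG2 cells divided by total DAPI nuclei. Degrader dilutions (IgG- or DNP-based, 0.1% DMSO final) were co-incubated 6 h at 37° C. with 100 nM of the corresponding fluorescent antibody.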

Experiment [4] addresses T2, ASGPR (Homo sapiens, UniProt P07306).
T2 sequence (P07306 1-291): T1 sequence (P07306 1-291)
Briefly: Affinity to ASGPR by surface plasmon resonance (SPR).

Where [5] appears, read: Biacore 8K, 25° C., IgG on CM5 chip, read-out: IgG SPR Binding Kd.
The mark [6] stands for this setting: HepG2 cells, 100 nM AF488-labeled antibody, 37° C. for 6 hours, class symbols, read-out: Uptake Assay EC50.
Setting [7] is: HepG2 cells, read-out: Uptake EC50.
[8] abbreviates: HepG2 cells, 100 nM AF488-labeled antibody, 1 hour at 4° C., class symbols, read-out: Ternary Complex EC50.
[9] abbreviates: Ternary Complex EC50 (nM), HepG2 cells, 100 nM AF488-labeled antibody, 1 hour at 4° C., class symbols.
[10] abbreviates: Homo sapiens, HepG2, 6 h, read-out: Uptake Assay EC50 (nM).

Read-outs that look alike come from different tables or passages of the source.

For the compound `CC(C)C[C@@H]1NC(=O)[C@H](Cc2c[nH]cn2)NC(=O)[C@H](Cc2c[nH]c3ccccc23)NC(=O)[C@H](C)NC(=O)[C@@H]2CSSC[C@H](NC(=O)[C@H](Cc3c[nH]c4ccccc34)NC(=O)[C@H](C(C)C)NC(=O)[C@H](CC(C)C)NC(=O)[C@H](CCC(=O)O)NC(=O)CNC1=O)C(=O)N[C@@H]([C@@H](C)O)C(=O)N1CCC[C@@H]1C(=O)N1C[C@@H](NC(=O)COCCOCC(=O)NC(COCCC(=O)NCCOCCOCCOCCOC[C@H]3OC[C@H](Nc4cncc(C(F)(F)F)n4)[C@@H](O)[C@H]3O)COCCC(=O)NCCOCCOCCOCCOC[C@H]3OC[C@H](Nc4cncc(C(F)(F)F)n4)[C@@H](O)[C@H]3O)C[C@H]1C(=O)N[C@@H](CC(=O)O)C(=O)N2` [Compound 41], the Kd in experiment [1] (setting [5]) was < 100 nM. Moreover, the 50% effective concentration (EC50) in experiment [2] and in experiment [3] (setting [6]) was < 100 nM throughout.

`CC(C)C[C@@H]1NC(=O)[C@H](Cc2c[nH]cn2)NC(=O)[C@H](Cc2c[nH]c3ccccc23)NC(=O)[C@H](C)NC(=O)[C@@H](NC(=O)[C@H](CC(=O)O)NC(=O)CCOCCOCCOCCOCCNC(=O)CCCc2cn(CCCCCC(=O)NC(COCCC(=O)NCCOCCOCCOCCOC[C@H]3OC[C@H](Nc4nccc(C(F)(F)F)n4)[C@@H](O)[C@H]3O)(COCCC(=O)NCCOCCOCCOCCOC[C@H]3OC[C@H](Nc4nccc(C(F)(F)F)n4)[C@@H](O)[C@H]3O)COCCC(=O)NCCOCCOCCOCCOC[C@H]3OC[C@H](Nc4nccc(C(F)(F)F)n4)[C@@H](O)[C@H]3O)nn2)CSSC[C@@H](C(=O)N[C@H](C(N)=O)[C@@H](C)O)NC(=O)[C@H](Cc2c[nH]c3ccccc23)NC(=O)[C@H](C(C)C)NC(=O)[C@H](CC(C)C)NC(=O)[C@H](CCC(=O)O)NC(=O)CNC1=O` [Compound 90]: the EC50 in experiment [2] and in experiment [3] (setting [7]) was < 100 nM each time. Moreover, the Kd in experiment [4] was < 100 nM.

With `CC(C)C[C@@H]1NC(=O)[C@H](Cc2cnc[nH]2)NC(=O)[C@H](Cc2c[nH]c3ccccc23)NC(=O)[C@H](C)NC(=O)[C@@H]2CSSC[C@H](NC(=O)[C@H](Cc3c[nH]c4ccccc34)NC(=O)[C@H](C(C)C)NC(=O)[C@H](CC(C)C)NC(=O)[C@H](CCC(=O)O)NC(=O)CNC1=O)C(=O)N[C@@H]([C@@H](C)O)C(=O)N1CCC[C@@H]1C(=O)N1C[C@@H](NC(=O)CCCc3cn(CCCCCC(=O)NC(COCCC(=O)NCCOCCOCCOCCOC[C@H]4OC[C@H](Nc5cncc(C(F)(F)F)n5)[C@@H](O)[C@H]4O)COCCC(=O)NCCOCCOCCOCCOC[C@H]4OC[C@H](Nc5cncc(C(F)(F)F)n5)[C@@H](O)[C@H]4O)nn3)C[C@H]1C(=O)N[C@@H](CC(=O)O)C(=O)N2` [Compound 52], in experiment [1] (setting [5]), the equilibrium dissociation constant (Kd) was < 100 nM. In addition, the half-maximal effective concentration (EC50) in experiment [2] (setting [8]) and in experiment [3] (setting [6]) was < 100 nM throughout.

As for `CC(C)C[C@@H]1NC(=O)[C@H](Cc2cnc[nH]2)NC(=O)[C@H](Cc2c[nH]c3ccccc23)NC(=O)[C@H](C)NC(=O)[C@@H]2CSSC[C@H](NC(=O)[C@H](Cc3c[nH]c4ccccc34)NC(=O)[C@H](C(C)C)NC(=O)[C@H](CC(C)C)NC(=O)[C@H](CCC(=O)O)NC(=O)CNC1=O)C(=O)N[C@@H]([C@@H](C)O)C(=O)N1CCC[C@@H]1C(=O)N1C[C@H](NC(=O)COCCOCC(=O)NC[C@H]3OC[C@H](Nc4cncc(C(F)(F)F)n4)[C@@H](O)[C@H]3O)C[C@H]1C(=O)N[C@@H](CC(=O)O)C(=O)N2` [Compound 91], the Kd in experiment [1] (SPR, read-out: IgG KD) was < 100 nM. Also, the EC50 in experiment [2] (HepG2 cells, ternary complex formation, read-out: TCF EC50) was < 100 nM; in experiment [3] (setting [7]) it was < 100 nM.

Take `O=C(CCOCC(COCCC(=O)NCCOCCOCCOCCOC[C@@]12CO[C@@H](O1)[C@H](Nc1nc(Cl)ns1)[C@@H](O)[C@H]2O)NC(=O)COCCOCCOCCNc1ccc([N+](=O)[O-])cc1[N+](=O)[O-])NCCOCCOCCOCCOC[C@@]12CO[C@@H](O1)[C@H](Nc1nc(Cl)ns1)[C@@H](O)[C@H]2O` [Compound 30, 3,3′-((2-(2-(2-(2-(2-((2,4-dinitrophenyl)amino)ethoxy)ethoxy)ethoxy)acetamido)propane-1,3-diyl)bis(oxy))bis(N-(1-((1S,2R,3R,4R,5S)-4-((3-chloro-1,2,4-thiadiazol-5-yl)amino)-2,3-dihydroxy-6,8-dioxabicyclo[3.2.1]octan-1-yl)-2,5,8,11-tetraoxatridecan-13-yl)propanamide)]: the EC50 in experiment [2] (setting [9]) and in experiment [3] (setting [10]) was < 100 nM throughout. Further, in experiment [4], the Kd was < 100 nM.

In the case of `O=C(CCOCCNC(=O)COCCOCCOCCNc1ccc([N+](=O)[O-])cc1[N+](=O)[O-])NCCOCCOCCOCCOC[C@@]12CO[C@@H](O1)[C@H](Nc1nc(Cl)ns1)[C@@H](O)[C@H]2O` [Compound 29, N-(1-((1S,2R,3R,4R,5S)-4-((3-chloro-1,2,4-thiadiazol-5-yl)amino)-2,3-dihydroxy-6,8-dioxabicyclo[3.2.1]octan-1-yl)-2,5,8,11-tetraoxatridecan-13-yl)-3-((14-((2,4-dinitrophenyl)amino)-4-oxo-6,9,12-trioxa-3-azatetradecyl)oxy)propanamide], the EC50 in experiment [2] (setting [9]) and in experiment [3] (setting [10]) was < 100 nM throughout. The compound also had a dissociation constant Kd in experiment [4] of 100 to 500 nM.

Regarding `CC(C)C[C@@H]1NC(=O)[C@H](Cc2c[nH]cn2)NC(=O)[C@H](Cc2c[nH]c3ccccc23)NC(=O)[C@H](C)NC(=O)[C@@H]2CSSC[C@H](NC(=O)[C@H](Cc3c[nH]c4ccccc34)NC(=O)[C@H](C(C)C)NC(=O)[C@H](CC(C)C)NC(=O)[C@H](CCC(=O)O)NC(=O)CNC1=O)C(=O)N[C@@H]([C@@H](C)O)C(=O)N1CCC[C@@H]1C(=O)N1C[C@@H](NC(=O)COCCOCCOCC(=O)NC(COCCC(=O)NCCOCCOCCOCCOC[C@H]3OC[C@H](Nc4nccc(C(F)(F)F)n4)[C@@H](O)[C@H]3O)COCCC(=O)NCCOCCOCCOCCOC[C@H]3OC[C@H](Nc4nccc(C(F)(F)F)n4)[C@@H](O)[C@H]3O)C[C@H]1C(=O)N[C@@H](CC(=O)O)C(=O)N2` [Compound 38], the half-maximal effective concentration (EC50) in experiment [2] (setting [8]) and in experiment [3] (setting [6]) was < 100 nM throughout. Also, the equilibrium dissociation constant (Kd) in experiment [4] was < 100 nM.

For `CC(C)C[C@@H]1NC(=O)[C@H](Cc2c[nH]cn2)NC(=O)[C@H](Cc2c[nH]c3ccccc23)NC(=O)[C@H](C)NC(=O)[C@@H]2CSSC[C@H](NC(=O)[C@H](Cc3c[nH]c4ccccc34)NC(=O)[C@H](C(C)C)NC(=O)[C@H](CC(C)C)NC(=O)[C@H](CCC(=O)O)NC(=O)CNC1=O)C(=O)N[C@@H]([C@@H](C)O)C(=O)N1CCC[C@@H]1C(=O)N1C[C@@H](NC(=O)CNC(COCCC(=O)NCCOCCOCCOCCO[C@@H]3O[C@H](CO)[C@H](O)[C@H](O)[C@H]3Nc3cncc(C(F)(F)F)n3)COCCC(=O)NCCOCCOCCOCCO[C@@H]3O[C@H](CO)[C@H](O)[C@H](O)[C@H]3Nc3cncc(C(F)(F)F)n3)C[C@H]1C(=O)N[C@@H](CC(=O)O)C(=O)N2` [Compound 71], the concentration for a half-maximal effect (EC50) in experiment [2] and in experiment [3] (setting [7]) was < 100 nM throughout. Besides, in experiment [4], the Kd was < 100 nM.

For `O=C(CCOCC(COCCC(=O)NCCOCCOCCOCCOC[C@@]12CO[C@@H](O1)[C@H](Nc1nccc(C(F)(F)F)n1)[C@@H](O)[C@H]2O)NC(=O)COCCOCCOCCNc1ccc([N+](=O)[O-])cc1[N+](=O)[O-])NCCOCCOCCOCCOC[C@@]12CO[C@@H](O1)[C@H](Nc1nccc(C(F)(F)F)n1)[C@@H](O)[C@H]2O` [Compound 31, 3,3′-((2-(2-(2-(2-(2-((2,4-dinitrophenyl)amino)ethoxy)ethoxy)ethoxy)acetamido)propane-1,3-diyl)bis(oxy))bis(N-(1-((1S,2R,3R,4R,5S)-2,3-dihydroxy-4-((4-(trifluoromethyl)pyrimidin-2-yl)amino)-6,8-dioxabicyclo[3.2.1]octan-1-yl)-2,5,8,11-tetraoxatridecan-13-yl)propanamide)], the EC50 in experiment [2] (setting [9]) and in experiment [3] (setting [10]) was < 100 nM throughout. Besides, the Kd in experiment [4] was < 100 nM.

The term Kd denotes the constant that tells how readily two partners part at equilibrium. One may read the EC50 as the concentration at which the effect is half-maximal.
